Tests used:
[1] = test system: Paraphysoderma sedebokerensis; experiment: Haematococcus pluvialis outdoor pond, PCR monitoring and treatment; conditions: 1 ppm
Protocol: A 200,000 liter outdoor pond is inoculated with Haematococcus pluvialis at an initial OD (750 nm) of ˜0.15 (pond P08). Growth of the microalgae is monitored daily by measuring the ash free dry weight of the culture. PCR monitoring is performed daily to detect the presence of the chytrid fungus Paraphysoderma sedebokerensis or close relatives using […] (SEQ ID NO. 38) and […] (SEQ ID NO. 39) as primers.
(§1) Initially, the Ct value for the pest is above the threshold of Ct=30. The measured Ct observed for P. sedebokerensis stays below Ct=30 and indicates a need for crop protective action. Once detected with a Ct<30, chlorothalonil is added at a concentration of 1 ppm. Daily monitoring is continued and the Ct observed for P. sedebokerensis increases above the Ct=30 threshold and remains above the threshold.

[2] = test system: Pest in infected Scenedesmus dimorphus culture; experiment: Fungicide efficacy on pest control in infected microalgae culture; type: cell-based
Description: Failure to treat an infected culture results in the collapse and loss of the microalgae culture. […] Test fungicides are graded on a rating scale of 0 to 3 where a score of 0 represents an efficacy of between 0 and 25%, a score of 1 represents an efficacy of between 26 and 50%, a score of 2 represents an efficacy of between 51 and 75% and a score of 3 represents an efficacy of between 76 and 100%.

[3] = test system: Rhizophidium planktonicum; experiment: Arthrospira sp. outdoor pond, qPCR monitoring and treatment; conditions: 1 ppm
Protocol: A 200,000 liter outdoor pond located in Las Cruces, N. Mex. is inoculated with Arthrospira sp. at an initial DW of 0.2 g/l. Growth of the microalgae is monitored daily by measuring the ash free dry weight of the culture. qPCR monitoring is performed daily to detect the presence of the chytrid fungus Rhizophidium planktonicum or close relatives using primers […] (SEQ ID NO. 40) and […] (SEQ ID NO. 41).
as §1, with “R. planktonicum” for “P. sedebokerensis”

N#Cc1c(Cl)c(Cl)c(Cl)c(C#N)c1Cl [chlorothalonil, 2,4,5,6-tetrachlorobenzene-1,3-dicarbonitrile]
Ct observed for P. sedebokerensis after treatment [1]: > 30 | Scenedesmus dimorphus Efficacy confirmation ([2]; @ 2 ppm, second trial): 75.7% @ 2 ppm | activity at 2 ppm ([2]; Tetradesmus dimorphus, read-out: Scenedesmus dimorphus efficacy): 84.5% | Rating ([2]; rating scale of 0 to 3 by percent efficacy): 3 (a score of 3 represents an efficacy of between 76 and 100%) | Ct observed for R. planktonicum after treatment [3]: > 30

Reference: patent publication US20140378513A1, “USE OF FUNGICIDES IN LIQUID SYSTEMS” (priority 2011, published 2014)
